# Where “and” joins values, the source holds several entries; their conditions need not be identical. Equal values may be shown once.
# Key:
# SSTR4 = biological target: T1, SSTR4 (Homo sapiens, UniProt P31391); test: Binding SSTR4; conditions: > = extrapolated value; read-out: Bind SSTR4
# T1 construct: host or cells: SRIF receptor expressing cell cultures (general statement only)
# SSTR1 = biological target: T2, SSTR1 (Homo sapiens, UniProt P30872); test: Binding SSTR1; conditions: > = extrapolated value; read-out: Bind SSTR1
# T2 construct: host or cells: SRIF receptor expressing cell cultures (general statement only)
# T2 sequence (P30872 whole entry, species assumed): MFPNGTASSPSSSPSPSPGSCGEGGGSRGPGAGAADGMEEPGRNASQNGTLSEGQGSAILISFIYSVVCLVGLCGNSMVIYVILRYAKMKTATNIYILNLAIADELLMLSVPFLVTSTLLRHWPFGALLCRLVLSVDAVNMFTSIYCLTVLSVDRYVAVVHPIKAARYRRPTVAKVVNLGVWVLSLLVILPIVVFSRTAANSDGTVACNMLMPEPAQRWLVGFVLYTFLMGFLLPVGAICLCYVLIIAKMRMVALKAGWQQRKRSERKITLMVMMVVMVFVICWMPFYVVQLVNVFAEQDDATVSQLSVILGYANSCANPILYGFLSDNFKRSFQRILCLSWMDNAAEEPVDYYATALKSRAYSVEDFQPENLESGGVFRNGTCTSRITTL
# [1] = system: GHRH stimulated GH secretion; test: GH secretion in vivo, rat, intravenous infusion with repeated GHRH stimulation
# Procedure: (§1) Animals, anesthesia: Male rats of a Sprague Dawley strain (Ico:OFA-SD, Iffa-Credo, F-Lyon) of 200-300 g body weight were used. They were kept under standardized conditions and were anesthetized with pentobarbital-sodium (Siegfried, CH Zofingen), 60 mg/kg i.p. for subcutaneous and intraduodenal applications. Animals designed for an infusion experiment were anesthetized with urethane (Siegfried, CH Zofingen), 1.2 g/kg i.p.
# (§2) Stock solutions of the compounds were prepared in water with the addition of the necessary adjunct(s). Further dilutions were prepared allowing 5 mL/kg for subcutaneous application, 2 mL for intraduodenal (i.d.) application or 4.5 mL/kg for intravenous infusion. The solutions for the intravenous application/infusion were made isotonic by addition of glucose to a final concentration of 5%.
# (§3) Applications were made, or, in the case of infusion, started, approximately 10 minutes after induction of anesthesia. No further treatment followed subcutaneous or intraduodenal application. Ten, twenty-five and fifty-five minutes after start of the intravenous infusion the GH secretion was stimulated with repeated intravenous injections of the potent GHRH analog, D-Ala2 GHRH1-29NH2, 1 μg/kg.
# (§4) One hour after subcutaneous or intraduodenal application of the compounds, blood was collected from the trunk after decapitation. In the case of application by infusion, 5 minutes after each application of GHRH, a blood sample of 0.8 mL was taken from a V. jugularis and mixed with EDTA (Eppendorf tubes TOM14, Milian, CH Geneva). The blood samples were kept on ice and spun in a cooled centrifuge. The serum or plasma was separated and frozen.
# (§5) Statistics: In each experiment, 4-5 animals were used per dose, with 6 to 8 animals as the control group that received the vehicle. The GH serum/plasma levels were averaged, the mean of the treated groups expressed in percent of the control group and the ID50-value for the inhibition of the secretion was determined graphically (log-probit) for each experiment. In most experiments with enteral (intraduodenal) application only 1 dose, 10 mg/kg, was given. […] Only inhibitions between 20 and 80% were considered reliable.
# (§6) Two to four experiments were performed. In the case of proper dose response curves, allowing the determination of an ID50 values were averaged logarithmically. In the cases of single dose-experiments, the GH value in percent of control were averaged logarithmically and the ID50 for this value was taken from the table. ID50 values determined at the different time points during the infusion were averaged and this value was included in the tables.
# SSTR5 = biological target: T3, SSTR5 (Homo sapiens, UniProt P35346); test: Binding SSTR5; conditions: read-out: Bind SSTR5
# T3 construct: host or cells: SRIF receptor expressing cell cultures (general statement only)
# T3 sequence (P35346 whole entry, species assumed): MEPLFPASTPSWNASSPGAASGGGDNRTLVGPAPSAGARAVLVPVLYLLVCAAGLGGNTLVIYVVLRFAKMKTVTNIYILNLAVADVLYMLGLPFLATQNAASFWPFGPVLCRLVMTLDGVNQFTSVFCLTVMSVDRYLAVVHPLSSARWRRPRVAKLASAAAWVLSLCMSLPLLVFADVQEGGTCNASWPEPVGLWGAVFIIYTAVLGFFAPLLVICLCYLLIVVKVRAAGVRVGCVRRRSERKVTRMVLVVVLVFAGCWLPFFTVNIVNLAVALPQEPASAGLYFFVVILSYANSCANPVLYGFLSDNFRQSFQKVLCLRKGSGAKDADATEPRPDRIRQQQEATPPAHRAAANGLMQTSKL
# [2] = system: basal plasma levels of growth hormone, glucagon, insulin and glucose; test: Endocrine parameters in the Rhesus monkey after subcutaneous administration; type: in vivo
# Procedure: Therefore, they were further investigated in the Rhesus monkey and their activity profile was determined. Using subcutaneous administration, they were characterized in this species, by measuring their effects on the basal plasma levels of growth hormone, glucagon, insulin as well changes in glucose levels.
# Animals and blood sampling: Rhesus monkeys, fed on the previous day in the morning with fruits only, were placed, slightly anesthetized with ketamin (Ketalar©, Parke-Davis), in primate chairs and brought to the experimental room. A catheter, consisting of an in-dwelling cannula (Vasocan Braunüle, 20G, B. Braun Melsungen AG, D-Melsungen), an extension line made from PP 800/110/260/100 Portex© tubing and a special adapter between cannula and tubing with a minimal void volume, was placed in a saphenic vein. The total volume of this catheter was approximately 0.7 mL. The distal end was placed through a hole in the wall to the adjacent room in order to allow infusion and blood sampling without being noticed by the animal. The animals were monitored with a video system.
# During the entire duration of the experiment an infusion of 5 to 10 mL/h of isotonic saline (NaCl 0.9% Braun, B. Braun Medical AG, CH-Emmenbrücke) containing heparin sodium 80 mg/L (Biochemie GMBH, A-Kundl) was maintained, using a roller pump (Vario-Perpex, Guldener, CH-Zürich). At each sampling time 1.5 mL (twice the void volume of the catheter) was taken in one syringe before collecting the actual blood sample of 2 mL in another syringe. The first 1.5 mL were reinfused immediately after the actual sample had been taken. The sample was mixed with 0.1 mL of a mixture containing EDTA (ethlenediaminetetraacetic acid tetrasodium Fluka, CH-Buchs) and aprotinin (Trasylol©, Bayer) resulting in final concentrations of 1.8 mg/mL and 1000 KIE/mL, respectively. The blood samples were kept on ice and spun in a cooled centrifuge. […]
# Determinations: The blood levels of the hormones were determined by radioimmunoassay (RIA) using the appropriate antisera, antibodies, labels and standards, glucose by an enzymatic assay: […]
# [3] = biological target: T4, human sst2 receptor sub-type (Homo sapiens, UniProt P30874); test: In vitro binding, human sst2 receptor sub-type (SSTR2); conditions: Tables 8/9: Bind SSTR2 nM
# T4 construct: host or cells: SRIF receptor expressing cell cultures (general statement only)
# T4 sequence (P30874 whole entry): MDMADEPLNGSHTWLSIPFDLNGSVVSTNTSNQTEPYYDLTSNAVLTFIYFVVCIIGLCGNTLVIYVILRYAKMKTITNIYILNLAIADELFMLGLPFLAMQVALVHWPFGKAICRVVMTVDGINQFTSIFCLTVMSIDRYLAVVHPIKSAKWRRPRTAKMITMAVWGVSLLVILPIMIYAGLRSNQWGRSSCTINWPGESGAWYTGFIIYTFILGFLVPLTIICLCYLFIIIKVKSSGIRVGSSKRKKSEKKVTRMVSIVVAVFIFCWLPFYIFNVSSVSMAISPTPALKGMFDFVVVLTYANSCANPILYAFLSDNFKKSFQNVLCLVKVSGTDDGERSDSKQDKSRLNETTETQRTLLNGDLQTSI
# Procedure: The in vitro binding affinities for rat cortex SRIF receptors and the human sst2 receptor sub-type was assessed. Further the in vitro inhibition of the GHRH induced GH secretion in primary cultures of rat pituitary cells as well as the in vivo inhibition of GH secretion in the rat after systemic or enteral application was studied. […] Therefore, the in vivo activities of the compounds in rats with respect to inhibition of growth hormone release was also assessed. Most compounds selected were tested by enteral—intraduodenal (i.d.) application. For determination of the absolute activity and for the calculation of an enteral bioavailability, single subcutaneous (s.c.) application of intravenous (i.v.) infusion was used.
# GH secretion [4] = test: GH secretion in vivo, rat, subcutaneous application, 1 h (basal); conditions: rat, basal GH secretion, 1 h after subcutaneous application
# Procedure: as §1
# (§7) Compounds: The compounds were dissolved, optionally with the aid of one or more of the following adjuncts:
# as §2, §3, §4, §5, §6
# GH secretion [5] = test: GH secretion in vivo, rat, intraduodenal (enteral) application, 1 h (basal); conditions: basal GH secretion, 1 h after intraduodenal application, mostly approximate ID50 from single 10 mg/kg dose, Ø = no effect at this dose, > = extrapolated value, 10 mg/kg
# Procedure: as §1, §7, §2, §3, §4, §5, §6
# SSTR3 = biological target: T5, SSTR3 (Homo sapiens, UniProt P32745); test: Binding SSTR3; conditions: > = extrapolated value; read-out: Bind SSTR3
# T5 construct: host or cells: SRIF receptor expressing cell cultures (general statement only)
# T5 sequence (P32745 whole entry, species assumed): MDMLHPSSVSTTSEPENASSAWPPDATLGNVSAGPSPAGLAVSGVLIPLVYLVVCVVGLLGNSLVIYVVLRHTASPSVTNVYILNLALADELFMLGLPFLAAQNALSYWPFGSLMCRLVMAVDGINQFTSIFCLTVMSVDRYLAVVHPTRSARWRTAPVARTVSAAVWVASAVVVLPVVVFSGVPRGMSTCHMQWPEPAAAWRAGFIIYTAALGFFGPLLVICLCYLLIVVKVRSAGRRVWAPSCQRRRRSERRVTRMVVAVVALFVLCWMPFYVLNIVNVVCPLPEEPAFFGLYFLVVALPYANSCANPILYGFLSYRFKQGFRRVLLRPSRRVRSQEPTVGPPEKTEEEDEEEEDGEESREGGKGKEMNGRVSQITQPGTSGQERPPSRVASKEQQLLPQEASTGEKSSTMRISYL
# SS1 = SS1 (Rattus norvegicus, UniProt P30680); test: SS-1 binding (Bind SS1 D.H.)
# Chain of SS1 (P30680 whole entry): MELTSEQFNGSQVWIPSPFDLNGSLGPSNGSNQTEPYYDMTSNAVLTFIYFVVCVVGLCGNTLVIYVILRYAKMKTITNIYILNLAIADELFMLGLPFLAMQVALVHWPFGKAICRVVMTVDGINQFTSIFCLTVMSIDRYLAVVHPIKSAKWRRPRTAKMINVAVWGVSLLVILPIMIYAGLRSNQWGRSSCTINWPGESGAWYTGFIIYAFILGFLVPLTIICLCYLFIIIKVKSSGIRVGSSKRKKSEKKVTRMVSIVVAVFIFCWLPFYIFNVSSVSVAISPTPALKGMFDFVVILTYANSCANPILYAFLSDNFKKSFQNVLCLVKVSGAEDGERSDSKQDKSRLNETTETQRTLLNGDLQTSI
# T1 sequence (P31391 whole entry, species assumed): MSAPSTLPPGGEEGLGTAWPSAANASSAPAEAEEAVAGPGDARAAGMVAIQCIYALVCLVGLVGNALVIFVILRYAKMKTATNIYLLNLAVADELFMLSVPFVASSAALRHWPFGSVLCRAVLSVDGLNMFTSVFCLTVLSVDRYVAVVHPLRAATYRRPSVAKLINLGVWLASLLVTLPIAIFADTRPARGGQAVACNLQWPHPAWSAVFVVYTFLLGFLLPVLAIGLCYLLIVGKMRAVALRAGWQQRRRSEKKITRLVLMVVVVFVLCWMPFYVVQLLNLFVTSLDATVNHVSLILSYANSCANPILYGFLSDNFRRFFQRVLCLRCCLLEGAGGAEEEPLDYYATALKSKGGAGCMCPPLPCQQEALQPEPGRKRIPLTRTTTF
compound,measurement,setting,value
Cc1cccc2c(CC3C(=O)N(CCCCCN)C(=O)N3S(=O)(=O)c3ccc(Oc4ccc(O)cc4)c(C(=O)N(C)C)c3)c[nH]c12 (stereo not drawn) [Compound 46],IC50,SSTR4,> 1000 nM
same,IC50,SSTR1,> 1000 nM
same,INFUS. + GHRH ID50 MEAN,"[1]; Table 4, mean of infusion time points",7.89 µg/kg
same,INFUS. + GHRH ID50 15′,"[1]; Table 4, urethan, 15′ of infusion",9.38 µg/kg
same,INFUS. + GHRH ID50 30′,"[1]; Table 4, urethan, 30′ of infusion",8.14 µg/kg
same,INFUS. + GHRH ID50 60′,"[1]; Table 4, urethan, 60′ of infusion",6.43 µg/kg
same,"GH, Ur Inf15′ +GHRH","[1]; Tables 8/9, urethane, 15′ of infusion",9.400 µg/kg/h
same,"GH, UR Inf30′ +GHRH","[1]; Tables 8/9, urethane, 30′ of infusion",8.100 µg/kg/h
same,"GH, UR Inf60′ +GHRH","[1]; Tables 8/9, urethane, 60′ of infusion",6.400 µg/kg/h
same,GH vivo Inf + GHRH ID50 (mean of time points),"[1]; urethane, i.v. infusion, GHRH stimulated, listed as 46 b",7.89 µg/kg/h and 7.900 µg/kg/h
same,IC50,SSTR5,90 nM
same,"dose levels necessary for inhibition of hormone release, times higher than Octreotride",[2],about 100 times
same,IC50,[3],0.43 nM
same,GH vivo s.c. 1 h ID50,GH secretion [4],7.4 µg/kg and 7 µg/kg
same,GH vivo s.c. 1 h ID50,GH secretion [4]; listed as 46 b,˜7.40 μg/kg
same,GH vivo i.d. 1 h ID50,GH secretion [5],19000 µg/kg
same,IC50,SSTR3,450 nM
same,Bind SS1 D.H.,SS1,0.63 nM
